Experimental data taken from patent US4457929A, “3-Quaternary ammonium methyl)-substituted cephalosporin derivatives” (Bristol-Myers Company, priority 1982, dated 1984).

Columns and labels:
[1] = tested on: H. influenzae (3) (ampicillin resistant); assay: In vitro activity against fastidious bacteria in GC agar: H. influenzae (ampicillin resistant); type: cell-based; conditions: Haemophilus influenzae, 3 strains, read-out: Geometric Mean of MIC
Description: (§1) The in vitro activity of the most preferred Compound Ia against 31 strains of fastidious bacteria was determined in GC agar, and the results are shown in Table 3.

S. pyogenes (6 strains) = assay: In vitro activity against fastidious bacteria in GC agar: S. pyogenes; type: cell-based; conditions: Streptococcus pyogenes, read-out: Geometric Mean of MIC
Description: as §1

[2] = tested on: Cephalothinresistant E. coli (3 strains) and Kl. pneumoniae (3 strains); assay: MIC by two-fold serial agar dilution, group (G-)-Ib; type: cell-based; conditions: cephalothin-resistant, 6 strains, Example 1: two different batches; for MIC: Escherichia coli, read-out: Geometric Mean of MIC (G-)-Ib, Mueller-Hinton agar
Text: (§2) The preferred compounds of Formula I are those in which R^1 is hydrogen, R^2 is methyl, R^3 is methyl or ethyl, and R^4 is methyl, ethyl, 2-hydroxyethyl, 2-(dimethylamino)ethyl, allyl or pyridylmethyl. Particularly preferred compounds are those in which R^1 is hydrogen, R^2 and R^3 are methyl, and R^4 is methyl, 2-hydroxyethyl or allyl. The most preferred compound is that in which R^1 is hydrogen and R^2, R^3 and R^4 are methyl. In the primary evaluation of the preferred compounds of this invention, the Minimum Inhibitory Concentrations (MIC's) of the compounds were determined by the two-fold serial agar dilution method in Mueller-Hinton agar against 32 strains of test organisms in six groups.
(G-)Ib: Cephalothinresistant E. coli (3 strains) and Kl. pneumoniae (3

S. pneumoniae (6) = assay: In vitro activity against fastidious bacteria in GC agar: S. pneumoniae; type: cell-based; conditions: Streptococcus pneumoniae, 6 strains, read-out: Geometric Mean of MIC
Description: as §1

[3] = tested on: Penicillinresistant S. aureus (5 strains); assay: MIC by two-fold serial agar dilution, group (G+)-Ib; type: cell-based; conditions: Staphylococcus aureus, Mueller-Hinton agar, penicillin-resistant S. aureus, Example 1: two different batches, read-out: Geometric Mean of MIC (G+)-Ib
Text: as §2
(G+)Ib: Penicillinresistant S. aureus (5 strains)

[4] = tested on: H. influenzae (7) (ampicillin sensitive); assay: In vitro activity against fastidious bacteria in GC agar: H. influenzae (ampicillin sensitive); type: cell-based; conditions: Haemophilus influenzae, 7 strains, read-out: Geometric Mean of MIC
Description: as §1

[5] = Mouse blood levels following a single intramuscular injection; type: in vivo; conditions: im, mice, 20 mg/kg
Description: The absorption of the most preferred Compound Ia (prepared in Example 1) was determined in mice following a single intramuscular injection of the test compound (dissolved in 0.1M phosphate buffer; pH 7) at a dosage of 20 mg/kg. Blood samples were collected from the orbital sinuses into heparinized capillary tubes and assayed in Mueller-Hinton medium using Morganella morganii A9695 as the test organism. The blood levels at various time intervals, the half-life values (t1/2) and the areas under the curve (AUC) are shown in Table 2.

[6] = tested on: Pr. morganii (1 strain), Ent. cloacae (2 strains) and Ser. marcescens (2 strains); assay: MIC by two-fold serial agar dilution, group (G-)-II; type: cell-based; conditions: Mueller-Hinton agar; 5 strains; Example 1: two different batches; read-out: Geometric Mean of MIC (G-)-II
Text: as §2
(G-)II: Pr. morganii (1 strain), Ent. cloacae (2 strains) and Ser.

N. meningitidis (5) = assay: In vitro activity against fastidious bacteria in GC agar: N. meningitidis; type: cell-based; conditions: Neisseria meningitidis, 5 strains, read-out: Geometric Mean of MIC
Description: as §1

[7] = tested on: Penicillinsensitive S. aureus (5 strains); assay: MIC by two-fold serial agar dilution, group (G+)-Ia; type: cell-based; conditions: Mueller-Hinton agar, penicillin-sensitive S. aureus, Example 1: two different batches; for MIC: Staphylococcus aureus, read-out: Geometric Mean of MIC (G+)-Ia
Text: as §2
(G+)Ia: Penicillinsensitive S. aureus (5 strains)

[8] = tested on: Cephalothinsensitive E. coli (2 strains), Kl. pneumoniae (1 strain) and Pr. mirabilis (2 strains); assay: MIC by two-fold serial agar dilution, group (G-)-Ia; type: cell-based; conditions: Mueller-Hinton agar, cephalothin-sensitive, 5 strains, Example 1: two different batches; for MIC: read-out: Geometric Mean of MIC (G-)-Ia
Text: as §2
(G-)Ia: Cephalothinsensitive E. coli (2 strains), Kl. pneumoniae (1
strain) and Pr. mirabilis (2 strains)

[9] = tested on: Ps. aeruginosa (6 strains); assay: MIC by two-fold serial agar dilution, group (G-)-III; type: cell-based; conditions: Mueller-Hinton agar, Example 1: two different batches; for MIC: Pseudomonas aeruginosa, read-out: Geometric Mean of MIC (G-)-III
Text: as §2
(G-)III: Ps. aeruginosa (6 strains)

N. gonorrhoeae (4) = assay: In vitro activity against fastidious bacteria in GC agar: N. gonorrhoeae; type: cell-based; conditions: Neisseria gonorrhoeae, 4 strains, read-out: Geometric Mean of MIC
Description: as §1

Compound: CO/N=C(\C(=O)NC1C(=O)N2C(C(=O)[O-])=C(C[N+](C)(C)C)CSC12)c1csc(N)n1 (centres unmarked) [Example 1, 7-[(Z)-2-(2-Aminothiazol-4-yl)-2-methoxyiminoacetamido]-3-(trimethylammonium)methyl-3-cephem-4-carboxylate]
- MIC [1]: 0.2 µg/mL
- MIC (S. pyogenes (6 strains)): 0.013 µg/mL
- MIC [2]: 0.25 µg/mL
- Geometric Mean of MIC (G-)-Ib ([2]; Mueller-Hinton agar): 0.20 µg/mL
- MIC (S. pneumoniae (6)): 0.013 µg/mL
- MIC [3]: 3.6 µg/mL
- MIC [4]: 0.013 µg/mL
- AUC [5]: 10000 ng·h/mL
- half-life [5]: 24 min
- concentration at 10 min ([5]; 10 minutes, read-out: Blood levels at minutes after administration: 10): 14000 ng/mL
- concentration at 20 min ([5]; 20 minutes, read-out: Blood levels at minutes after administration: 20): 12000 ng/mL
- concentration at 0.5 h ([5]; 30 minutes, read-out: Blood levels at minutes after administration: 30): 8800 ng/mL
- concentration at 40 min ([5]; 40 minutes, read-out: Blood levels at minutes after administration: 40): 7500 ng/mL
- concentration at 50 min ([5]; 50 minutes, read-out: Blood levels at minutes after administration: 50): 4700 ng/mL
- concentration at 1 h ([5]; 60 minutes, read-out: Blood levels at minutes after administration: 60): 4400 ng/mL
- concentration at 1.5 h ([5]; 90 minutes, read-out: Blood levels at minutes after administration: 90): 1500 ng/mL
- concentration at 2 h ([5]; 120 minutes, read-out: Blood levels at minutes after administration: 120): 740 ng/mL
- MIC [6]: 0.69 µg/mL
- MIC (N. meningitidis (5)): 0.016 µg/mL
- Geometric Mean of MIC (G+)-Ia [7]: 1.6 µg/mL
- MIC [7]: 1.1 µg/mL
- Geometric Mean of MIC (G-)-Ia [8]: 0.029 µg/mL
- MIC [8]: 0.033 µg/mL
- Geometric Mean of MIC (G-)-III [9]: 4.0 µg/mL
- MIC [9]: 3.2 µg/mL
- MIC (N. gonorrhoeae (4)): 0.013 µg/mL

Compound: CO/N=C(\C(=O)NC1C(=O)N2C(C(=O)[O-])=C(C[N+](C)(C)CCO)CSC12)c1csc(N)n1 (centres unmarked) [Example 2, 7-[(Z)-2-(2-Aminothiazol-4-yl)-2-methoxyiminoacetamido]-3-[N,N-dimethyl-N-(2-hydroxyethyl)ammonium]methyl-3-cephem-4-carboxylate]
- MIC [2]: 0.18 µg/mL
- MIC [3]: 4.7 µg/mL
- MIC [6]: 0.6 µg/mL
- MIC [7]: 1.6 µg/mL
- MIC [8]: 0.038 µg/mL
- MIC [9]: 3.5 µg/mL

Compound: C=CC[N+](C)(C)CC1=C(C(=O)[O-])N2C(=O)C(NC(=O)/C(=N\OC)c3csc(N)n3)C2SC1 (centres unmarked) [Example 3, 7-[(Z)-2-(2-Aminothiazol-4-yl)-2-methoxyiminoacetamido]-3-(N,N-dimethyl-N-allylammonium)methyl-3-cephem-4-carboxylate]
- MIC [2]: 0.22 µg/mL
- MIC [3]: 3.6 µg/mL
- MIC [6]: 0.69 µg/mL
- MIC [7]: 1.4 µg/mL
- MIC [8]: 0.044 µg/mL
- MIC [9]: 5.6 µg/mL

Compound: CO/N=C(\C(=O)NC1C(=O)N2C(C(=O)[O-])=C(C[N+](C)(C)Cc3cccnc3)CSC12)c1csc(N)n1 (centres unmarked) [Example 4, 7-[(Z)-2-(2-Aminothiazol-4-yl)-2-methoxyiminoacetamido]-3-[N,N-dimethyl-N-(3-pyridylmethyl)ammonium]methyl-3-cephem-4-carboxylate]
- MIC [2]: 0.22 µg/mL
- MIC [3]: 4.7 µg/mL
- MIC [6]: 0.69 µg/mL
- MIC [7]: 2.1 µg/mL
- MIC [8]: 0.057 µg/mL
- MIC [9]: 7.1 µg/mL

Compound: CCO/N=C(\C(=O)NC1C(=O)N2C(C(=O)[O-])=C(C[N+](C)(C)C)CSC12)c1csc(N)n1 (centres unmarked) [Example 8, 7-[(Z)-2-(2-Aminothiazol-4-yl)-2-ethoxyiminoacetamido]-3-(trimethylammonium)methyl-3-cephem-4-carboxylate]
- MIC [2]: 0.5 µg/mL
- MIC [3]: 5.5 µg/mL
- MIC [6]: 1.4 µg/mL
- MIC [7]: 2.1 µg/mL
- MIC [8]: 0.087 µg/mL
- MIC [9]: 7.9 µg/mL
